Entries after “also recorded” stand apart in the source; their conditions may differ. Peptide text beside a SMILES is read from it. * marks the point of attachment. Cbz = O=C(OCc1ccccc1)*
Tests used:
[1] = test system: WT Torsin1a localization in Flp-In T-REx 293 cells expressing EGFP-WT Torsin1a; assay: Torsin1a localization assay in WT Torsin1a-expressing assay cell line; format: cell-based, human; conditions: WT cell line; MG132 10 μM, PBA 20 mM
Description: To develop an assay capable of detecting conditions that correct a dystonia cellular phenotype, two human cell lines were generated that stably expressed EGFP-tagged human wild-type Torsin 1A, or delta-E Torsin1a, from a single cDNA copy integrated at a defined genomic site (FIG. 1, panel 1).
To limit variation in expression levels associated with random integration or transient expression, single copies of either WT or delta-E human TOR1A cDNAs with N-terminal EGFP fusions were inserted at the FRT site in Flp-In™ T-Rex™ 293 cells (Thermo Fisher Scientific #R780-07) via flippase recombinase-mediated cassette exchange according to the manufacturer's recommended protocols. This system includes an inducible expression feature (TetON) that avoids selective pressure for potential toxic effects of chronic expression of mutant proteins (FIG. 1, panel 1). […]
This approach provides control over expression levels, avoiding the wide variation typically seen with random genomic integration or transient expression approaches. […] The mutant phenotype was measured as the percentage of cells with one or more EGFP puncta using automated high-content imaging analysis (see infra).
Development and validation of the high-content image analysis and assay performance under high-throughput screening conditions is presented in FIG. 9. […] Automated exposure times for each plate were determined by setting a target saturation of 25% in channel 1 in wells containing tetracycline-induced delta-E cells. Detected cells were gated according to nuclear area, length-to-width ratio, and perimeter-to-area ratio. […] EGFP fluorescence (Ch2: excitation 488 nm; emission 509 nm) was used for puncta detection. Automated exposure times for each plate were determined by setting a target saturation of 35% in channel 2 in wells containing induced delta-E cells. […]

[2] = test system: delta-E Torsin1a localization in Flp-In T-REx 293 cells expressing EGFP-delta-E Torsin1a; assay: delta-E Torsin1a mis-localization assay (high-content imaging, % cells with EGFP puncta); format: cell-based, human; conditions: delta-E cell line; for percentage of cells with punctate EGFP-Torsin1a signal: MG132 10 μM, PBA 20 mM
Method: To limit variation in expression levels associated with random integration or transient expression, single copies of either WT or delta-E human TOR1A cDNAs with N-terminal EGFP fusions were inserted at the FRT site in Flp-In™ T-Rex™ 293 cells (Thermo Fisher Scientific #R780-07) via flippase recombinase-mediated cassette exchange according to the manufacturer's recommended protocols.
The cells were maintained at 37° C./5% CO2. All experiments were performed on cells with fewer than 5 passages.
Torsin1a expression was also controlled by tetracycline induction to avoid selective pressure modifying the cellular phenotypes. […] The mutant phenotype was measured as the percentage of cells with one or more EGFP puncta using automated high-content imaging analysis (see infra).
The image analysis algorithm was developed using the Cellomics ArrayScan V CompartmentAnalysisV2 protocol. Hoechst's nuclear staining (Ch1: excitation 350 nm; emission 461 nm) was used for focusing and for cell identification by nuclear size, shape, and intensity. […] Detected cells were gated according to nuclear area, length-to-width ratio, and perimeter-to-area ratio. For the purpose of analysis, cell bodies were defined by a radius of 10 μm from the outer edge of the defined nucleus. Overlapping cells were automatically segmented according to the Cellomics ArrayScanV CompartmentAnalysisV2 object segmentation feature. EGFP fluorescence (Ch2: excitation 488 nm; emission 509 nm) was used for puncta detection. […] Torsin1a puncta were identified using the spot detection feature of the Compartmental AnalysisV2 protocol. The percentage of cells containing one or more puncta was used as the primary metric in this assay.
(§1) In order to test this model directly, the delta-E Torsin1a cell line was treated with compounds targeting the eIF2-alpha signaling pathway (FIG. 2). […] The following day, serial drug dilutions were prepared at 2× final concentration in assay media containing 10 μg/mL tetracycline and 30 μL of the drug/tetracycline mixture was added to the appropriate wells, while control wells received 30 μL of assay media alone or assay media+10 μg/mL tetracycline (final tetracycline concentration for all wells except negative controls: 5 μg/mL). Cells were then incubated at 37° C./5% CO^2 for 48 hours and fixed, permeabilized, Hoechst stained, and imaged as described above. The range of the Torsin1a localization effect was normalized to the percentage of cells with puncta in vehicle-treated delta-E cell line as the maximum and that in WT cell line as the minimum (FIG. 2, panels c-h). Cell count and EGFP-Torsin1a expression were normalized to their respective values in the vehicle-treated delta-E cell line as the maximum. All dose response data are the average of 4 independent experiments per dose. Untreated control data used for normalization are the average of 24 independent experiments.

[3] = test system: Flp-In T-REx 293 cells expressing delta-E Torsin1a; assay: Cytotoxicity (cell count, cellular morphology) in the Torsin1a assay cell line; format: cell-based, human; conditions: at effective concentrations
Method: as §1
Efficacy is calculated as the magnitude of the pathology correction relative to the mutant Torsin1a pathology. For example an efficacy=−100% would be equivalent to the WT TorsinA phenotype, and 0% would be equivalent to the Mutant TorsinA phenotype. CCv2 refers to the dose response Curve Class annotation, and AC refers to Active Concentration.

[4] = test system: homozygous DYT1 (delta-E Torsin1a) knock-in mice; assay: Perinatal survival of homozygous DYT1 knock-in mice after in utero exposure; format: in vivo, mouse
Method: The findings above support a role for the eIF2-alpha signaling pathway in normalizing in vitro cellular phenotypes related to the DYT1 genotype. Next, the effect of targeting eIF2-alpha signaling on the deleterious consequences of the DYT1 TorsinA mutation was determined in vivo. Etiological mouse models of DYT1 dystonia have not had robust dystonic phenotypes. (Tanabe, L. M., et al., (2012) PloS One 7, e32245; Camargos, S. et al., (2008) Lancet. Neurol. 7, 207-15; Seibler, P. et al. (2008) Lancet. Neurol. 7, 380-1.) Nonetheless, another deleterious genotype-dependent effect of the mutation on the animal-neonatal lethality of homozygous delGAG knock-in mice—facilitated interrogation of the impact of eIF2-alpha targeting in vivo (FIG. 4a). (Seibler, P. et al. (2008) Lancet. Neurol. 7, 380-1; Goodchild, R. E., et al, (2005) Neuron 48, 923-32.)
Pairs of heterozygous delta-E Torsin1a knock-in breeders (courtesy of Dr. W. Dauer, University of Michigan) were randomly assigned to vehicle or salubrinal treatment groups. Starting 10 days after breeding cages were established, each female mouse was given a daily subcutaneous injection of vehicle or salubrinal at approximately 6 p.m. Cages were checked for new pups three times per day: morning (˜8 a.m.), early afternoon (˜2 p.m.), and during injections (˜6 p.m.). In order to minimize stress and the possibility of litter abandonment, mice with newborn pups were not given injections. Newborn pups were identified by marking limbs with a permanent laboratory marker, and tail samples were taken for genotyping at P0. At approximately P0.5, cages were checked again, and the status of each pup was recorded. If pups were first observed at the 8 am check, the 2 pm check was considered P0.5. If pups were first observed at the 2 pm or 6 pm checks, an additional check was performed at approximately midnight, and considered P0.5. Mortality was also tracked the following day, after which time identifying marks were predominately washed off or obscured by fur. […]

| Structure (SMILES) | percentage of cells with punctate EGFP-Torsin1a signal [1] | percentage of cells with punctate EGFP-Torsin1a signal [2] | EC50 ([2]; Homo sapiens, Flp-In-T-REx-293, 48 hours, dose response, read-out: EC50 of normalization of delta-E Torsin1a localization) | effect on delta-E Torsin1a localization (in words) ([2]; dose response) | efficacy on delta-E Torsin1a localization ([2]; normalized to vehicle delta-E (max) and WT (min)) | toxicity (cell count, cellular morphology; in words) [3] | perinatal survival / mortality of homozygous delta-E/delta-E pups ([4]; 3.3 mg/kg subcutaneous daily to pregnant dams from about embryonic day 10 through delivery, vs vehicle) | mortality of wildtype or heterozygote pups ([4]; 3.3 mg/kg subcutaneous daily to pregnant dams, treatment vs control) | homozygous delta-E Torsin1a pups that survived through the second postnatal day ([4]; in utero exposure, no vehicle-treated homozygous pups survived the first postnatal day) |
| --- | --- | --- | --- | --- | --- | --- | --- | --- | --- |
| CC(C)C[C@@H](C=O)NC(=O)[C@H](CC(C)C)NC(=O)[C@H](CC(C)C)NC(=O)OCc1ccccc1 [MG132] (Cbz-Leu-Leu-Leu-aldehyde) | significantly increased | significantly increased | – | – | – | – | – | – | – |
| O=C(O)CCCc1ccccc1 [PBA, phenylbutyric acid] | ameliorated the burden of cells with punctate pathology | ameliorated the burden of cells with punctate pathology | – | – | – | – | – | – | – |
| O=C(/C=C/c1ccccc1)NC(NC(=S)Nc1cccc2cccnc12)C(Cl)(Cl)Cl (centres unmarked) [Salubrinal] | – | – | 2120 nM | robust dose-dependent normalization | 66.4% | without modifying steady-state EGFP-Torsin1a levels or significant toxicity | dramatically reduced the mortality; also recorded: improves perinatal survival | no mortality differences | two |

— US11285142B2, “Compositions and methods for identifying and treating dystonia disorders” (DUKE UNIVERSITY, priority 2015, dated 2022)
